From publication PMC5926424 (Japanese Journal of Cancer Research : Gann, 2000)
Where two headings read alike, the source gives them in different places.

Assays:
HDL = settings: cited from earlier work
LDL = settings: cited from earlier work
albumin = settings: cited from earlier work
T.Tn cells = format: cell-based; settings: for ATX-S10(Na) uptake: 3 h
[1] = T.Tn cells, 50 μg/ml ATX-S10(Na), 10% FCS, 37C, Fig. 4

SMILES: C=Cc1c(C)c2cc3nc(c(CC(=O)N[C@@H](CC(=O)O)C(=O)O)c4[nH]c(cc5nc(cc1[nH]2)C(C)=C5CC)c(C)c4C(=O)O)[C@@H](CCC(=O)O)[C@@H]3C [NPe6, N-aspartyl chlorin-e6]
- Fraction bound to HDL (HDL): 19%
- Fraction bound to LDL (LDL): 1%
- Fraction bound to albumin (albumin): 80%

SMILES: CCCN(CCC)S(=O)(=O)c1ccc(C(=O)O)cc1 [Probenecid]
- ATX-S10(Na) uptake (T.Tn cells; 30 µM): 112.3 % of control
- ATX-S10(Na) uptake (T.Tn cells; 100 µM): 105.5 % of control
- ATX-S10(Na) uptake (T.Tn cells; 300 µM): 113.1 % of control
- ATX-S10(Na) uptake (T.Tn cells; 1000 µM): 115.7 % of control

SMILES: CCN(CC)CCCC(C)Nc1ccnc2cc(Cl)ccc12 (stereo not shown) [chloroquine]
- Effect of endocytosis inhibitor on cellular uptake of ATX-S10(Na) (T.Tn cells): partially but significantly inhibited

SMILES: CC[C@@]1([C@@H]2O[C@@H]([C@H]3O[C@@](O)(CO)[C@H](C)C[C@@H]3C)C[C@@H]2C)CC[C@H]([C@]2(C)CC[C@]3(C[C@H](O)[C@@H](C)[C@@H]([C@@H](C)[C@@H](OC)[C@H](C)C(=O)O)O3)O2)O1 [monensin]
- Effect of endocytosis inhibitor on cellular uptake of ATX-S10(Na) (T.Tn cells; [1]): partially but significantly inhibited

SMILES: O=CC(=O)c1ccccc1 [phenylglyoxal]
- Effect of endocytosis inhibitor on cellular uptake of ATX-S10(Na) (T.Tn cells; [1]): partially but significantly inhibited
